Patent US9969694B2, “N-(arylalkyl)-N′-pyrazolyl-urea, thiourea, guanidine and cyanoguanidine compounds as TrkA kinase inhibitors” (Array BioPharma Inc., priority 2012, dated 2018)
One block for each molecule: values may come before it.

Legend:
Assay in all cases: Off-Target Kinase Profiling
Assay type in all cases: biochemical
Settings in all cases: 10 μM; ATP near Km
[1] = molecular target: T1, BrSK1 (Homo sapiens, UniProt Q8TDC3)
T1 construct: purchased Millipore (KinaseProfiler service)
Summary of the method: (§1)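 Percent of control is reported, the mean of two replicate runs, for each compound tested at 10 μM. The ATP level was set close to each kinase's own Km.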

[2] = molecular target: T2, Plk1 (Homo sapiens, UniProt P53350)
T2 construct: purchased Millipore, Inc. (KinaseProfiler service)
Summary of the method: as §1

[3] = molecular target: T3, WNK2 (Homo sapiens, UniProt Q9Y3S1)
T3 construct: purchased Millipore, Inc. (KinaseProfiler service)
Summary of the method: as §1

[4] = molecular target: T4, PKD1 (Homo sapiens, UniProt Q15139)
T4 construct: purchased Millipore, Inc. (KinaseProfiler service)
Summary of the method: as §1

[5] = molecular target: T5, CDK3/cyclinE (Homo sapiens, UniProt Q00526)
T5 construct: purchased Millipore, Inc. (KinaseProfiler service)
Summary of the method: as §1

[6] = molecular target: T6, MAPKAP-K3 (Homo sapiens, UniProt Q16644)
T6 construct: purchased Millipore, Inc. (KinaseProfiler service)
Summary of the method: as §1

[7] = molecular target: T7, MKK4_m (Mus musculus, UniProt P47809)
T7 construct: purchased Millipore, Inc. (KinaseProfiler service)
Summary of the method: as §1

[8] = molecular target: T8, MKNK2 (Homo sapiens, UniProt Q9HBH9)
T8 construct: purchased Millipore, Inc. (KinaseProfiler service)
Summary of the method: as §1

[9] = molecular target: T9, EphA3 (Homo sapiens, UniProt P29320)
T9 construct: purchased Millipore, Inc. (KinaseProfiler service)
T9 sequence (P29320 21-983): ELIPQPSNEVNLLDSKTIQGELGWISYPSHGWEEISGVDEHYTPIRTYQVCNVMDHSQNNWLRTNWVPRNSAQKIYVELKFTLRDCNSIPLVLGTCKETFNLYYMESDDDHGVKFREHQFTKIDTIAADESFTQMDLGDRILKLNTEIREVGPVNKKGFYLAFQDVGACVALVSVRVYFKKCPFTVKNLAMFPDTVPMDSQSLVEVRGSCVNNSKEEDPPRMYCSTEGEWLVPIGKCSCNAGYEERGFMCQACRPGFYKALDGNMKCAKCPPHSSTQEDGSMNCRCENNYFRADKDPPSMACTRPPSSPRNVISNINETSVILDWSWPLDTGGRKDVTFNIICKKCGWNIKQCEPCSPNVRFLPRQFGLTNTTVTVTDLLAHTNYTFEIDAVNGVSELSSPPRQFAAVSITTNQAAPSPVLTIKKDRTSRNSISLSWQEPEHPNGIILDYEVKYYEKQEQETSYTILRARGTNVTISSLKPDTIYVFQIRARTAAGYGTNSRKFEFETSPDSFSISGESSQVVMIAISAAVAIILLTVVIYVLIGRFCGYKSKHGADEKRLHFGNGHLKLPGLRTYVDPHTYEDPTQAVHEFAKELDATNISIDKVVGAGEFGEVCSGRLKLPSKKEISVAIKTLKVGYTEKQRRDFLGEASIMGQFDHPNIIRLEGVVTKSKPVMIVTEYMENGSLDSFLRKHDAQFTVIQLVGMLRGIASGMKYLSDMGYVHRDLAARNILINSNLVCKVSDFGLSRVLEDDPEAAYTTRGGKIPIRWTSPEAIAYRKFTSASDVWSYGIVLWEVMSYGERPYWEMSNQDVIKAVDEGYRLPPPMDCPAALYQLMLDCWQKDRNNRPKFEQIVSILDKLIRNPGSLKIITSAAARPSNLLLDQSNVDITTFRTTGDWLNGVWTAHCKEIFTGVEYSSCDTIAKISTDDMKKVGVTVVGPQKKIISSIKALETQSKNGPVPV
Summary of the method: as §1

[10] = molecular target: T10, Met (Homo sapiens, UniProt P08581)
T10 construct: purchased Millipore, Inc. (KinaseProfiler service)
Summary of the method: as §1

[11] = molecular target: T11, VRK2 (Homo sapiens, UniProt Q86Y07)
T11 construct: purchased Millipore, Inc. (KinaseProfiler service)
Summary of the method: as §1

[12] = molecular target: T12, GSK3beta (Homo sapiens, UniProt P49841)
T12 construct: purchased Millipore, Inc. (KinaseProfiler service)
T12 sequence (P49841 whole entry): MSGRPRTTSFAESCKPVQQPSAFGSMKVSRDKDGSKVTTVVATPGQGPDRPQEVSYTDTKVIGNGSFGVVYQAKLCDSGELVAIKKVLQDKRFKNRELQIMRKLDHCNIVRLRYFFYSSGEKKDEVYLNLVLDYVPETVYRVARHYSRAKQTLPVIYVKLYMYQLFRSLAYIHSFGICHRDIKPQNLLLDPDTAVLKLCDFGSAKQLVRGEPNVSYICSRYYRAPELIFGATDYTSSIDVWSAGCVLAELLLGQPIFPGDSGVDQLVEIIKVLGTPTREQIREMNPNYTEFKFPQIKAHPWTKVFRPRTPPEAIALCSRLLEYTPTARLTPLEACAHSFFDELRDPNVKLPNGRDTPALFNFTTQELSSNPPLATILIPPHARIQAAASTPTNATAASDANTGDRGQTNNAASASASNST
Summary of the method: as §1

[13] = molecular target: T13, CAMK4 (Homo sapiens, UniProt Q16566)
T13 construct: purchased Millipore (KinaseProfiler service)
Summary of the method: as §1

[14] = molecular target: T14, MST3 (Homo sapiens, UniProt Q9Y6E0)
T14 construct: purchased Millipore, Inc. (KinaseProfiler service)
Summary of the method: as §1

[15] = molecular target: T15, PKCepsilon (Homo sapiens, UniProt Q02156)
T15 construct: purchased Millipore, Inc. (KinaseProfiler service)
Summary of the method: as §1

[16] = molecular target: T16, MELK (Homo sapiens, UniProt Q14680)
T16 construct: purchased Millipore, Inc. (KinaseProfiler service)
Summary of the method: as §1

[17] = molecular target: T17, PKCgamma (Homo sapiens, UniProt P05129)
T17 construct: purchased Millipore, Inc. (KinaseProfiler service)
Summary of the method: as §1

[18] = molecular target: T18, CK1delta (Homo sapiens, UniProt P48730)
T18 construct: purchased Millipore, Inc. (KinaseProfiler service)
Summary of the method: as §1

[19] = molecular target: T19, PhKgamma2 (Homo sapiens, UniProt P15735)
T19 construct: purchased Millipore, Inc. (KinaseProfiler service)
Summary of the method: as §1

[20] = molecular target: T20, TNK2 (Homo sapiens, UniProt Q07912)
T20 construct: purchased Millipore, Inc. (KinaseProfiler service)
Summary of the method: as §1

[21] = molecular target: T21, PKCeta (Homo sapiens, UniProt P24723)
T21 construct: purchased Millipore, Inc. (KinaseProfiler service)
Summary of the method: as §1

[22] = molecular target: T22, PAK2 (Homo sapiens, UniProt Q13177)
T22 construct: purchased Millipore, Inc. (KinaseProfiler service)
T22 sequence (Q13177 whole entry): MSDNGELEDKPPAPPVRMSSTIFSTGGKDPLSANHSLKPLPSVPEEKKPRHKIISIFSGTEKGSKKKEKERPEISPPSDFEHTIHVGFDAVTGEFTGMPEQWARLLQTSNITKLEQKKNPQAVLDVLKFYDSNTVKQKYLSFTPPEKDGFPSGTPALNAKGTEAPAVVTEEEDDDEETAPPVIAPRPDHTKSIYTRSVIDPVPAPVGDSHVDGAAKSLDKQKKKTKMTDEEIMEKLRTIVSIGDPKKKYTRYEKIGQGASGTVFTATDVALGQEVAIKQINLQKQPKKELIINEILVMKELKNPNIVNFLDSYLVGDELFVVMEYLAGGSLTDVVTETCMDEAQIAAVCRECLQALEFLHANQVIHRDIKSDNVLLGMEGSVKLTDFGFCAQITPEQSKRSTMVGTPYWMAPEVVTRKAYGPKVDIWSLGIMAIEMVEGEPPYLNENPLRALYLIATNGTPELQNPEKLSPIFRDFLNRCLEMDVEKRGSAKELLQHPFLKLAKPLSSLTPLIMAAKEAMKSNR
Summary of the method: as §1

[23] = molecular target: T23, ULK3 (Homo sapiens, UniProt Q6PHR2)
T23 construct: purchased Millipore, Inc. (KinaseProfiler service)
Summary of the method: as §1

[24] = molecular target: T24, FAK (Homo sapiens, UniProt Q05397)
T24 construct: purchased Millipore, Inc. (KinaseProfiler service)
T24 sequence (Q05397 whole entry): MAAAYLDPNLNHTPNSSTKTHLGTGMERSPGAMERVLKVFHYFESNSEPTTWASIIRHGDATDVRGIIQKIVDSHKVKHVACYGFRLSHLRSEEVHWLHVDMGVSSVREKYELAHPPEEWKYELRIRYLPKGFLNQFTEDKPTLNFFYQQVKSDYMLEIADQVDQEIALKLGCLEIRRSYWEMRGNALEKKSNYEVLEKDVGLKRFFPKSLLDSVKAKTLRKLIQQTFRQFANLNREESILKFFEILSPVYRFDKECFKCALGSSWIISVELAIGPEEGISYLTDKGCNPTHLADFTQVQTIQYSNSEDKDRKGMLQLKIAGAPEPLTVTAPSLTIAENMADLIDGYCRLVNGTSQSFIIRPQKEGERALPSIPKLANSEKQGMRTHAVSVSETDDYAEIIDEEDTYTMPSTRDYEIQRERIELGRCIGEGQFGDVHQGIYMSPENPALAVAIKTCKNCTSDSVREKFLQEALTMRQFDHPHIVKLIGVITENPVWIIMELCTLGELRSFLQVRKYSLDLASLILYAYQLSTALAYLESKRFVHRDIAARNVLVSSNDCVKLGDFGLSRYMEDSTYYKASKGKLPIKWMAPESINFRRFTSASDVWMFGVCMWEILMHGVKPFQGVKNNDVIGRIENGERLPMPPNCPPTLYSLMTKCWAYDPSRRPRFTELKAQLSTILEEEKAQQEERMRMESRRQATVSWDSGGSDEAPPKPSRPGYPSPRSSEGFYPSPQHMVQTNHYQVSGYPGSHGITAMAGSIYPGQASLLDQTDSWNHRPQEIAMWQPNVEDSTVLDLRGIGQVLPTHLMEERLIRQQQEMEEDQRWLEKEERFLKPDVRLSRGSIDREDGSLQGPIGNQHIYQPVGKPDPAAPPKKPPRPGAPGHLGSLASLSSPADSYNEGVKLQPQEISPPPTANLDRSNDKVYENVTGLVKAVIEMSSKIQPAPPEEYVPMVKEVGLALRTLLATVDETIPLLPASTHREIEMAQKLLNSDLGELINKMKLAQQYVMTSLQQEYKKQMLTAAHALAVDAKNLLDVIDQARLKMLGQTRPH
Summary of the method: as §1

[25] = molecular target: T25, Ret (Homo sapiens, UniProt P07949)
T25 construct: purchased Millipore, Inc. (KinaseProfiler service)
Summary of the method: as §1

[26] = molecular target: T26, DCAMKL2 (Homo sapiens, UniProt Q8N568)
T26 construct: purchased Millipore, Inc. (KinaseProfiler service)
Summary of the method: as §1

[27] = molecular target: T27, GRK7 (Homo sapiens, UniProt Q8WTQ7)
T27 construct: purchased Millipore, Inc. (KinaseProfiler service)
Summary of the method: as §1

[28] = molecular target: T28, MARK1 (Homo sapiens, UniProt Q9P0L2)
T28 construct: purchased Millipore, Inc. (KinaseProfiler service)
Summary of the method: as §1

[29] = molecular target: T29, Pim-3 (Homo sapiens, UniProt Q86V86)
T29 construct: purchased Millipore, Inc. (KinaseProfiler service)
Summary of the method: as §1

[30] = molecular target: T30, EphA1 (Homo sapiens, UniProt P21709)
T30 construct: purchased Millipore, Inc. (KinaseProfiler service)
Summary of the method: as §1

[31] = molecular target: T31, Syk (Homo sapiens, UniProt P43405)
T31 construct: purchased Millipore, Inc. (KinaseProfiler service)
Summary of the method: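 Kinase activity remaining in the presence of 10 μM compound, as percent of control; mean of two runs. ATP near Km for each kinase.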

[32] = molecular target: T32, CAMK2b (Homo sapiens, UniProt Q13554)
T32 construct: purchased Millipore (KinaseProfiler service)
Summary of the method: as §1

[33] = molecular target: T33, PDGFRbeta (Homo sapiens, UniProt P09619)
T33 construct: purchased Millipore, Inc. (KinaseProfiler service)
Summary of the method: as §1

[34] = molecular target: T34, STK33 (Homo sapiens, UniProt Q9BYT3)
T34 construct: purchased Millipore, Inc. (KinaseProfiler service)
Summary of the method: as §1

[35] = molecular target: T35, SGK1 (Homo sapiens, UniProt O00141)
T35 construct: purchased Millipore, Inc. (KinaseProfiler service)
Summary of the method: as §1

[36] = molecular target: T36, CDK5/p25 (Homo sapiens, UniProt Q00535)
T36 construct: purchased Millipore, Inc. (KinaseProfiler service)
T36 sequence (Q00535 whole entry): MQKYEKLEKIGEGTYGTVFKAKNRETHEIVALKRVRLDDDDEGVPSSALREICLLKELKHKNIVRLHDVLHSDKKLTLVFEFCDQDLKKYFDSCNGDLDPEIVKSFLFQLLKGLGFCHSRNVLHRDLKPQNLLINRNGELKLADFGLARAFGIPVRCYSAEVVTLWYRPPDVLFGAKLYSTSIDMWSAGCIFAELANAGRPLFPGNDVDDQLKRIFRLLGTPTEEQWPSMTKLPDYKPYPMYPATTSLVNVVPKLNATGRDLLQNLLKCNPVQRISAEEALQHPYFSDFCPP
T36 sequence (Q15078 99-307 partner limits assumed): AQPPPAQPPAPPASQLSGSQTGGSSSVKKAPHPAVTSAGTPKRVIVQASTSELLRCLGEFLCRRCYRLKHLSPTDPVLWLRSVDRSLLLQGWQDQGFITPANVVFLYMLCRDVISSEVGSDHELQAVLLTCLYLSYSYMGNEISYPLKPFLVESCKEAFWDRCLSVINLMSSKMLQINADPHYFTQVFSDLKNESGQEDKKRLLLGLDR
Summary of the method: as §1

[37] = molecular target: T37, PKAC-alpha (Homo sapiens, UniProt P17612)
T37 construct: purchased Millipore, Inc. (KinaseProfiler service)
Summary of the method: as §1

[38] = molecular target: T38, IKKalpha (Homo sapiens, UniProt O15111)
T38 construct: purchased Millipore, Inc. (KinaseProfiler service)
Summary of the method: as §1

[39] = molecular target: T39, JNK3 (Homo sapiens, UniProt P53779)
T39 construct: purchased Millipore, Inc. (KinaseProfiler service)
Summary of the method: as §1

[40] = molecular target: T40, EGFR (Homo sapiens, UniProt P00533)
T40 construct: purchased Millipore, Inc. (KinaseProfiler service)
T40 sequence (P00533 25-1210): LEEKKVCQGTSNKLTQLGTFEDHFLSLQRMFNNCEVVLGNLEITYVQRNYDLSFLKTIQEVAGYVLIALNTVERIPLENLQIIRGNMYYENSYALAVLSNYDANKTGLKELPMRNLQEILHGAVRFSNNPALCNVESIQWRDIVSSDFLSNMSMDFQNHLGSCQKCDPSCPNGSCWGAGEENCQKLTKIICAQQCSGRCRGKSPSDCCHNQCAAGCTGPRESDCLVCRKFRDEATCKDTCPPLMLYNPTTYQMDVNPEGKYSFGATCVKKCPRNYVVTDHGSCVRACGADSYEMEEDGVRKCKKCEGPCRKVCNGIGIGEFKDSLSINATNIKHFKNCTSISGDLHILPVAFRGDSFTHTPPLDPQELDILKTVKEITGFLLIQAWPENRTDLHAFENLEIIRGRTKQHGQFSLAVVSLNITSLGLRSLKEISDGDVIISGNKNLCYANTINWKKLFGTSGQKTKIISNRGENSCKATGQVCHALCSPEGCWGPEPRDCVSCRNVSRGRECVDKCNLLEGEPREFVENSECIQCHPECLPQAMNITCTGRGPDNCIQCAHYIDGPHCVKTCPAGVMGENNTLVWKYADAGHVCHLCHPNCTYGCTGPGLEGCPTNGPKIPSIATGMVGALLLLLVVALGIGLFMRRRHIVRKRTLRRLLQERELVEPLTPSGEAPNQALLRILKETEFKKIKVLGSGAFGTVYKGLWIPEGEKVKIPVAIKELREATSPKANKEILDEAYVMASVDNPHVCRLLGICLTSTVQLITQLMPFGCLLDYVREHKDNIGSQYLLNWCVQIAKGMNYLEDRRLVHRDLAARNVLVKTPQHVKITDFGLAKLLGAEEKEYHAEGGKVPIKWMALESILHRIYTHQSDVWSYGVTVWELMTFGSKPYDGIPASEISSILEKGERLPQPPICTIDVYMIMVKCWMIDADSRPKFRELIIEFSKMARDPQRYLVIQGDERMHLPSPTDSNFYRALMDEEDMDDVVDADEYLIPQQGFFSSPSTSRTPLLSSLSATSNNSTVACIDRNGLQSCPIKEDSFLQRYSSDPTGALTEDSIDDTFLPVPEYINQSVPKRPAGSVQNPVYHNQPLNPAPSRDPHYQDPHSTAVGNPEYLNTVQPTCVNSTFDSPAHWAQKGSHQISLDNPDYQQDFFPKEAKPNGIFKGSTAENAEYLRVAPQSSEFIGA
Summary of the method: as §1

[41] = molecular target: T41, SGK3 (Homo sapiens, UniProt Q96BR1)
T41 construct: purchased Millipore, Inc. (KinaseProfiler service)
Summary of the method: as §1

Avg POC BrSK1 [1]: 86.5 POC | Avg POC Plk1 [2]: 84 POC | Avg POC WNK2 [3]: 109 POC | Avg POC PKD1 [4]: 94.5 POC | Avg POC CDK3/cyclinE [5]: 90.5 POC | Avg POC MAPKAP-K3 [6]: 98.5 POC | Avg POC MKK4_m [7]: 125.5 POC | Avg POC MKNK2 [8]: 98 POC | Avg POC EphA3 [9]: 119 POC | Avg POC Met [10]: 117 POC | Avg POC VRK2 [11]: 90 POC | Avg POC GSK3beta [12]: 115 POC | Avg POC CAMK4 [13]: 144.5 POC | Avg POC MST3 [14]: 99 POC | Avg POC PKCepsilon [15]: 83.5 POC | Avg POC MELK [16]: 83.5 POC | Avg POC PKCgamma [17]: 101 POC | Avg POC CK1delta [18]: 85.5 POC | Avg POC PhKgamma2 [19]: 118 POC | Avg POC TNK2 [20]: 114.5 POC | Avg POC PKCeta [21]: 86.5 POC | Avg POC PAK2 [22]: 88 POC | Avg POC ULK3 [23]: 93.5 POC | Avg POC FAK [24]: 96.5 POC | Avg POC Ret [25]: 89.5 POC | Avg POC DCAMKL2 [26]: 96.5 POC | Avg POC GRK7 [27]: 105 POC | Avg POC MARK1 [28]: 97 POC | Avg POC Pim-3 [29]: 105.5 POC | Avg POC EphA1 [30]: 98 POC | Avg POC Syk [31]: 79.5 POC | Avg POC CAMK2b [32]: 94 POC | Avg POC PDGFRbeta [33]: 106 POC | Avg POC STK33 [34]: 98 POC | Avg POC SGK1 [35]: 96 POC | Avg POC CDK5/p25 [36]: 107.5 POC | Avg POC PKAC-alpha [37]: 132 POC | Avg POC IKKalpha [38]: 112.5 POC | Avg POC JNK3 [39]: 74 POC | Avg POC EGFR [40]: 107.5 POC | Avg POC SGK3 [41]: 92.5 POC
SMILES: COCc1ccc(C2CCC2)c(CNC(=O)Nc2c(C)c(-c3cnc(C)nc3)nn2-c2ccccc2)c1 [Example 10, 1-(2-cyclobutyl-5-(methoxymethyl)benzyl)-3-(4-methyl-3-(2-methylpyrimidin-5-yl)-1-phenyl-1H-pyrazol-5-yl)urea]

Avg POC BrSK1 [1]: 119 POC | Avg POC Plk1 [2]: 93 POC | Avg POC WNK2 [3]: 140.5 POC | Avg POC PKD1 [4]: 94 POC | Avg POC CDK3/cyclinE [5]: 98.5 POC | Avg POC MAPKAP-K3 [6]: 119.5 POC | Avg POC MKK4_m [7]: 137 POC | Avg POC MKNK2 [8]: 101.5 POC | Avg POC EphA3 [9]: 116.5 POC | Avg POC Met [10]: 122.5 POC | Avg POC VRK2 [11]: 90.5 POC | Avg POC GSK3beta [12]: 136.5 POC | Avg POC CAMK4 [13]: 149 POC | Avg POC MST3 [14]: 126.5 POC | Avg POC PKCepsilon [15]: 92 POC | Avg POC MELK [16]: 114 POC | Avg POC PKCgamma [17]: 98 POC | Avg POC CK1delta [18]: 127.5 POC | Avg POC PhKgamma2 [19]: 116 POC | Avg POC TNK2 [20]: 119.5 POC | Avg POC PKCeta [21]: 98 POC | Avg POC PAK2 [22]: 89.5 POC | Avg POC ULK3 [23]: 99.5 POC | Avg POC FAK [24]: 99 POC | Avg POC Ret [25]: 91 POC | Avg POC DCAMKL2 [26]: 254.5 POC | Avg POC GRK7 [27]: 103 POC | Avg POC MARK1 [28]: 109.5 POC | Avg POC Pim-3 [29]: 103 POC | Avg POC EphA1 [30]: 90 POC | Avg POC Syk [31]: 123.5 POC | Avg POC CAMK2b [32]: 96 POC | Avg POC PDGFRbeta [33]: 166.5 POC | Avg POC STK33 [34]: 104.5 POC | Avg POC SGK1 [35]: 279 POC | Avg POC CDK5/p25 [36]: 100.5 POC | Avg POC PKAC-alpha [37]: 139.5 POC | Avg POC IKKalpha [38]: 137.5 POC | Avg POC JNK3 [39]: 135 POC | Avg POC EGFR [40]: 116.5 POC | Avg POC SGK3 [41]: 150 POC
SMILES: COCc1ccc(C(F)(F)F)c(CNC(=O)Nc2c(C)c(-c3cnn(C)c3)nn2-c2ccccc2)c1 [Example 33, 1-(1′,4-dimethyl-1-phenyl-1H,1′H-[3,4′-bipyrazol]-5-yl)-3-(5-(methoxymethyl)-2-(trifluoromethyl)benzyl)urea]
